# Assay results: patent publication US20240124399A1, “NOVEL INDOLE DERIVATIVE, AND USE THEREOF FOR TREATING DISEASES RELATED TO ADVANCED GLYCATION END PRODUCTS” (METACEN THERAPEUTICS, priority 2021, published 2024)
# Experiments:
# [1] = Methylglyoxal (MGO) trapping ability: free MGO concentration by HPLC; format: biochemical; conditions: for MGO concentration on day 1 (free MGO) / MGO concentration on day 7 (free MGO): compound 1:1 with MGO in PBS pH 7.4, 37° C.; for MGO concentration on day 1 (free MGO): day 1, HPLC; for MGO concentration on day 7 (free MGO): day 7, HPLC
# Method: The objective of this experimental example was to confirm whether the compound of the present invention has the ability to trap methylglyoxal (MGO) by analyzing the concentration of free methylglyoxal (MGO) by high performance liquid chromatography (HPLC).
# Specifically, a mixture was prepared by adding methylglyoxal (MGO) to phosphate buffered saline (PBS, Cat no. 10010023, pH 7.4). […]
# [2] = Methylglyoxal (MGO) trapping ability: fluorescence intensity of reaction product; format: biochemical; conditions: compound 1.0 mM in MGO+PBS pH 7.4, 37° C., 1 day; ex 355 nm / em 460 nm; 10×10^3 or more = ability to trap MGO
# Method: Methylglyoxal (MGO) is a main precursor of advanced glycation end products that cause complications due to diabetes mellitus. Successful trapping of methylglyoxal (MGO) can inhibit the production of advanced glycation end products. Therefore, the objective of this experimental example was to confirm whether the compound of the present invention has the ability to trap methylglyoxal (MGO), a precursor before the production of advanced glycation end products.
# A mixture was prepared by adding methylglyoxal (MGO) to phosphate buffered saline (PBS, Cat no. 10010023, pH 7.4). The mixture (MGO+PBS) was treated with the compound of the above example at a concentration of 1.0 mM and then cultured at 37° C. for 1 day. The fluorescence intensity of the reaction product was measured at an excitation wavelength of 355 nm and an emission wavelength of 460 nm using a VICTOR™X3 multilabel plate reader.
# The higher the fluorescence intensity measured from the reaction product, the higher the ability of the compound to trap methylglyoxal. In addition, in this experimental example, when the fluorescence intensity was 10×10^3 or more, it was determined that the compound had the ability to trap methylglyoxal.
Compound,MGO concentration on day 1 (free MGO) [1],MGO concentration on day 7 (free MGO) [1],Fluorescence intensity on day 1 (×10^3) [2],"concentration of free methylglyoxal relative to the control group, day 1 ([1]; day 1 after incubation, control group PBS+MGO)","concentration of free methylglyoxal relative to the control group, day 7 ([1]; day 7 after incubation, control group PBS+MGO)"
"CCCC(=O)N[C@H](CO)Cc1c[nH]c2ccc(OC(=O)CCC)cc12 [Compound 9, (S)-3-(2-butyramido-3-hydroxypropyl)-1H-indol-5-yl butyrate]",551.993 µM,403.462 µM,0.75 ± 0.30 ×10^3,–,–
"NCCCCNCCCNC(=O)OC[C@@H](N)Cc1c[nH]c2ccc(O)cc12 [Compound 10, (S)-2-amino-3-(5-hydroxy-1H-indol-3-yl)propyl (3-((4-aminobutyl)amino)propyl)carbamate]",444.11 µM,269.28 µM,223.01 ± 3.74 ×10^3,about 12%,about 38%
"CCCC(=O)OC[C@@H](N)Cc1c[nH]c2ccc(OC(=O)CCC)cc12 [Compound 8, (S)-2-amino-3-(5-(butyryloxy)-1H-indol-3-yl)propyl butyrate]",501.09 µM,412.65 µM,21.74 ± 0.50 ×10^3,–,–
